Reference: article PMC2970562, “High-Affinity Inhibitors of Human NAD^+-Dependent 15-Hydroxyprostaglandin Dehydrogenase: Mechanisms of Inhibition and Structure-Activity Relationships” (PLoS ONE, 2010)
“Also recorded” adds a separate entry of the source.

Tests used:
[1] = target: T1, human 15-PGDH (Homo sapiens, UniProt P15428); test: qHTS and 24-point re-test: fluorescence assay of NAD+ reduction to NADH on PGE2 oxidation (PubChem AID 894); format: biochemical; conditions: read-out: qHTS IC50
T1 construct: comprising residues 3–256 of the human HPGD gene (GenBank identifier: 1203982); His6 (GHHHHHH, behind the TEV site) (C, cleaved yes); made in house; host or cells: E. coli BL21(DE3)-R3
T1 sequence (P15428 3-256): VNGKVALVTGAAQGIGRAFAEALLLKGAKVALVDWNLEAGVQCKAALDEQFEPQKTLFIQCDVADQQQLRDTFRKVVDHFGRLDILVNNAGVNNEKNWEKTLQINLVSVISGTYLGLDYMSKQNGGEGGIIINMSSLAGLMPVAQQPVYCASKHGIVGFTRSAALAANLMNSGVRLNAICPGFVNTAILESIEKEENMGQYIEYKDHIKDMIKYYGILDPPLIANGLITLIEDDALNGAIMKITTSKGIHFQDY
Method in brief: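 NADH fluorescence (ex 340/em 450 nm) followed kinetically over a 2-min initial rate. Data normalized to no-enzyme and no-compound controls; four-parameter Hill fit.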

[2] = target: T1, human 15-PGDH; test: Compound titrations of re-synthesized inhibitors in the kinetic assay; format: biochemical; conditions: 10 nM 15-PGDH, 30 µM PGE2, 200 µM NAD+, 25°C, lower percent substrate conversion; read-out: IC50, re-synthesized compounds
Protocol: (§1) Kinetic studies were performed in 100 mM Tris buffer pH 8.0, containing 0.01% Tween-20 and 10 nM 15-PGDH enzyme. […] All inhibitor compounds were dissolved in 10% (v/v) DMSO at varying concentrations from which they were applied at 1∶5 ratio (resulting in a final concentration of 2% (v/v) DMSO in all assays). For each experiment an aliquot of purified enzyme was thawed freshly and pre-diluted to 10 µM in buffer I (5 mM Tris/HCl, pH 8.0, 150 mM NaCl, 0.01% Tween-20). All experiments were performed in white 384-well PCR microplates (Bio-Rad Laboratories, Inc.) in final assay volumes of 20 µL. Twelve-point compound titrations were set up from serially diluted stock solutions in 10% (v/v) DMSO. […] The initial rates recorded in compound titrations were plotted against -log[compound], and non-linear regression (Levenberg-Marquardt) fitting of the dose-response curve to the Hill equation [47] was performed to derive the IC50, using PRISM 5.0 (GraphPad Software, Inc.). For substrate/cofactor titrations, curves with initial rates plotted against the concentration of substrate or cofactor were fitted to the Michaelis-Menten equation, to derive maximal activities, V max, and Michaelis constants, K m. Fitting qualities were judged from the goodness of fit (R^2>0.98).

[3] = target: T1, human 15-PGDH; test: Substrate (PGE2) and cofactor (NAD+) titrations, mechanism of action, global fitting; format: biochemical; conditions: for Competitive (CM), fit residual Chi^2 value / Mixed-mode (MM), fit residual Chi^2 value / Noncompetitive (NM), fit residual Chi^2 value / Uncompetitive (UM), fit residual Chi^2 value: global fitting; for Titration of NAD^+ K m / Titration of NAD^+ V max [µmol/(min×mg)] / Titration of NAD^+ k cat/K m[×10^6] / Titration of NAD^+ k cat[1/sec]: 30 µM PGE2
Protocol: as §1

[4] = target: T1, human 15-PGDH; test: Differential scanning fluorimetry (DSF), thermal stabilization; format: binding; conditions: for ∆Tm [°C] NAD+: with 200 µM NAD+; for ∆Tm [°C] NAD+ / ∆Tm [°C] NADH / ∆Tm [°C] apo: 1 µM protein, compound 50 or 250 µM, N/A = no unfolding transition observed in DSF; for ∆Tm [°C] NADH: with 200 µM NADH; for ∆Tm [°C] apo: without cofactor
[5] = NAD+ titration, inhibitor 20 nM
[6] = PGE2 titration, inhibitor 10 nM

Cc1cccc(-n2cnc3cc(C(=O)N4CCCCC4)ccc32)c1 [Compound 13, [1-(3-methylphenyl)-1H-benzimidazol-5-yl)(piperidin-1-yl)methanone]
IC50 [1]: 56 nM
IC50 [2]: 7.9 ± 0.8 nM
decrease of K m for NAD+ [3, 5]: ~45%
decrease of V max [3, 5]: approximately 60%
Sum-of-squares F-test p, UM vs. MM ([3]; NAD^+ titration): UM vs. MM:p = 0.0654
Sum-of-squares F-test p, NM vs. MM ([3]; PGE2 titration): NM vs. MM:p = 0.0017
Sum-of-squares F-test p, UM vs. MM ([3]; PGE2 titration): UM vs. MM:p = 0.0133
decrease of V max [3, 6]: 25%
V max relative to no inhibitor ([3]; PGE2 titration, inhibitor 20 nM, in words): less than half
Preferred mode of inhibition ([3]; PGE2 titration, rejection threshold p = 0.05): MM (MM, mixed-mode inhibition)
Competitive (CM), fit residual Chi^2 value ([3]; NAD^+ titration): 0.8764
Mixed-mode (MM), fit residual Chi^2 value ([3]; NAD^+ titration): 0.9675
Noncompetitive (NM), fit residual Chi^2 value ([3]; NAD^+ titration): 0.9655
Uncompetitive (UM), fit residual Chi^2 value ([3]; NAD^+ titration): 0.9664
Competitive (CM), fit residual Chi^2 value ([3]; PGE2 titration): 0.8669
Mixed-mode (MM), fit residual Chi^2 value ([3]; PGE2 titration): 0.9797
Noncompetitive (NM), fit residual Chi^2 value ([3]; PGE2 titration): 0.9777
Uncompetitive (UM), fit residual Chi^2 value ([3]; PGE2 titration): 0.9784
mode of inhibition with respect to the cofactor NAD+ ([3]; in words): uncompetitively
mode of inhibition with respect to the substrate PGE2 ([3]; in words): noncompetitive, uncompetitive or mixed-modes; also recorded: noncompetitively or in a mixed-type mode
Titration of PGE2 K m ([3]; inhibitor 10.0 nM): 3.7 ± 0.5 µM
Titration of PGE2 V max[µmol/(min×mg)] ([3]; inhibitor 10.0 nM): 21.3 µmol/min/mg
Titration of PGE2 k cat/K m[×10^6] ([3]; inhibitor 10.0 nM): 2.8 ×10^6
Titration of PGE2 k cat[1/sec] ([3]; inhibitor 10.0 nM): 10.3 ± 0.3 s⁻¹
Titration of NAD^+ K m ([3]; inhibitor 10.0 nM): 10.7 ± 0.6 µM
Titration of NAD^+ V max [µmol/(min×mg)] ([3]; inhibitor 10.0 nM): 17.5 µmol/min/mg
Titration of NAD^+ k cat/K m[×10^6] ([3]; inhibitor 10.0 nM): 0.8 ×10^6
Titration of NAD^+ k cat[1/sec] ([3]; inhibitor 10.0 nM): 8.5 ± 0.1 s⁻¹
Titration of PGE2 K m ([3]; inhibitor 20.0 nM): 2.8 ± 0.4 µM
Titration of PGE2 V max[µmol/(min×mg)] ([3]; inhibitor 20.0 nM): 12.6 µmol/min/mg
Titration of PGE2 k cat/K m[×10^6] ([3]; inhibitor 20.0 nM): 2.1 ×10^6
Titration of PGE2 k cat[1/sec] ([3]; inhibitor 20.0 nM): 6.1 ± 0.2 s⁻¹
Titration of NAD^+ K m ([3]; inhibitor 20.0 nM): 8.9 ± 0.8 µM
Titration of NAD^+ V max [µmol/(min×mg)] ([3]; inhibitor 20.0 nM): 8.2 µmol/min/mg
Titration of NAD^+ k cat/K m[×10^6] ([3]; inhibitor 20.0 nM): 0.4 ×10^6
Titration of NAD^+ k cat[1/sec] ([3]; inhibitor 20.0 nM): 4.0 ± 0.1 s⁻¹
ΔTm in the presence of NAD+ [4]: 7.3±0.2 °C
ΔTm in the presence of NADH [4]: 13.5±0.9 °C
∆Tm [°C] NAD+ [4]: 7.3 °C
∆Tm [°C] NADH [4]: 13.5 °C
∆Tm [°C] apo [4]: -1.7 °C

Cc1cc(-c2nnc3n2CCCCC3)c(C)n1-c1ccccc1 [Compound 72]
IC50 [1]: 89 nM
IC50 [2]: 15 ± 1.2 nM
Sum-of-squares F-test p, NM vs. MM ([3]; PGE2 titration): NM vs. MM:p = 0.3515
effect on the K m ([3]; PGE2 titration, in words): no effect
decrease of V max [3, 6]: approximately 50%
Competitive (CM), fit residual Chi^2 value ([3]; PGE2 titration): 0.9299
Mixed-mode (MM), fit residual Chi^2 value ([3]; PGE2 titration): 0.9736
Noncompetitive (NM), fit residual Chi^2 value ([3]; PGE2 titration): 0.9734
Uncompetitive (UM), fit residual Chi^2 value ([3]; PGE2 titration): 0.9680
mode of inhibition with respect to the substrate PGE2 ([3]; in words): noncompetitive or mixed-type
Titration of PGE2 K m ([3]; inhibitor 4.0 nM): 5.6 ± 1.1 µM
Titration of PGE2 V max[µmol/(min×mg)] ([3]; inhibitor 4.0 nM): 22.8 µmol/min/mg
Titration of PGE2 k cat/K m[×10^6] ([3]; inhibitor 4.0 nM): 2.0 ×10^6
Titration of PGE2 k cat[1/sec] ([3]; inhibitor 4.0 nM): 11.1 ± 0.5 s⁻¹
Titration of PGE2 K m ([3]; inhibitor 10.0 nM): 6.4 ± 0.6 µM
Titration of PGE2 V max[µmol/(min×mg)] ([3]; inhibitor 10.0 nM): 15.4 µmol/min/mg
Titration of PGE2 k cat/K m[×10^6] ([3]; inhibitor 10.0 nM): 1.2 ×10^6
Titration of PGE2 k cat[1/sec] ([3]; inhibitor 10.0 nM): 7.5 ± 0.2 s⁻¹
∆Tm [°C] NAD+ [4]: 5.0 °C
∆Tm [°C] NADH [4]: 10.5 °C
∆Tm [°C] apo [4]: 0.1 °C
